In ChEMBL document CHEMBL1147155, “1,4-Dihydroindeno[1,2-c]pyrazoles with acetylenic side chains as novel and potent multitargeted receptor tyrosine kinase inhibitors with low affinity for the hERG ion channel” (J Med Chem, 2007):

Experiments:
Format in all cases: ADME, organism-based
[1] = Clearance in CD1 mouse at 3 mg/kg, iv; design: dose 3 mg/kg, route intravenous; details: in vivo
[2] = Half life in CD1 mouse at 3 mg/kg, iv; design: dose 3 mg/kg, route intravenous; details: in vivo
[3] = Bioavailability in CD1 mouse at 10 mg/kg, po; details: in vivo
[4] = AUC in CD1 mouse at 10 mg/kg, po; design: dose 10 mg/kg, route oral; details: plasma

clearance [1]	half-life [2]	bioavailability [3]	AUC [4]	SMILES
41.7 mL/min/kg	3 h			C(#Cc1cc(-c2n[nH]c3c2Cc2cc(Cn4cncn4)ccc2-3)cs1)COc1ccccc1
		17%	3500 ng·h/mL	CN1CCN(Cc2ccc3c(c2)Cc2c(-c4csc(C#CCNC(=O)c5ccccc5)c4)n[nH]c2-3)CC1
		0%		CN1CCN(Cc2ccc3c(c2)Cc2c-3n[nH]c2-c2csc(C#CCNC(=O)Nc3ccccc3)c2)CC1
	5.5 h	75%		CN1CCN(Cc2ccc3c(c2)Cc2c-3n[nH]c2-c2csc(C#CCOc3ccccc3)c2)CC1
56.7 mL/min/kg	0.3 h	22%		COCCOCC#Cc1cc(-c2n[nH]c3c2Cc2cc(Cn4cncn4)ccc2-3)cs1
